Measured values published in patent publication US20030171307A1, “Azalide antibiotic compositions” (Pfizer Inc., priority 2001, published 2003).

Assay: Equilibration of azalide isomers I and II in heated aqueous acid, HPLC (Table 1)
Assay type: physicochemical
Settings: isomer I prior to equilibration, for comparison

With `CCCNC[C@]1(O)[C@H](C)O[C@@H](O[C@H]2[C@H](C)[C@@H](OC3O[C@H](C)C[C@H](N(C)C)[C@H]3O)C(C)(O)C[C@@H](C)CN[C@H](C)[C@@H](O)[C@](C)(O)[C@@H](CC)OC(=O)[C@@H]2C)C[C@@]1(C)OC` (single isomer, unassigned) [isomer I] the “% Equilibrium mixture of isomers” value was 98.39% and the “% Impurities” value was 1.61%.
